Experimental data from ChEMBL document CHEMBL1201862, “PubChem BioAssay data set” (2004).
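Five concentrations, 48 hours, 96-well plates. GI50 is the concentration that inhibits growth by half.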 The source made the active and inactive calls. Rule as the data show it: active = GI50 up to about 1.1 µM and inactive = higher.

Key:
Assay in all cases: inhibition of tumour cell growth, NCI panel, 48 h
DLD-1 = tested on: DLD-1
DMS-114 = tested on: DMS-114
DMS-273 = tested on: DMS-273
HOP-18 = tested on: HOP-18
KM-20L2 = tested on: KM-20L2
SNB-78 = tested on: SNB-78
XF498 = tested on: XF498
LXFL 529 = tested on: LXFL 529
RXF 631 = tested on: RXF 631

SMILES	GI50 (DLD-1)	GI50 (DMS-114)	GI50 (DMS-273)	GI50 (HOP-18)	GI50 (KM-20L2)	GI50 (SNB-78)	GI50 (XF498)	GI50 (LXFL 529)	GI50 (RXF 631)
NCCSc1nc(N)c2ncn(C3OC(CO)C(O)C3O)c2n1 (stereo not drawn)	> 100 µM (inactive)	> 100 µM (inactive)	> 100 µM (inactive)	> 100 µM (inactive)	> 100 µM (inactive)	> 100 µM (inactive)	> 100 µM (inactive)	–	–
CN(C)CCNC(=O)c1cccc2c1nc(-c1ccncc1)c1ccccc12	2.38 µM (inactive)	2.84 µM (inactive)	0.767 µM (active)	9.91 µM (inactive)	–	5.9 µM (inactive)	–	–	–
Cc1ccc(Oc2ccc(C)cc2N)cc1	66.1 µM (inactive)	49.4 µM (inactive)	75 µM (inactive)	> 100 µM (inactive)	> 100 µM (inactive)	75.5 µM (inactive)	–	> 100 µM (inactive)	–
CC1=NN(c2ccccc2)C(=O)C1=C1SCCS1	32.6 µM (inactive)	> 46.3 µM (inactive)	> 58.3 µM (inactive)	36.3 µM (inactive)	> 65.6 µM (inactive)	> 100 µM (inactive)	32.7 µM (inactive)	> 67.9 µM (inactive)	> 89.7 µM (inactive)
COc1ccc(/C=C\c2cc(OC)c3c(c2)OCO3)c(O)c1O	6.28 µM (inactive)	2.88 µM (inactive)	20 µM (inactive)	20.6 µM (inactive)	23.2 µM (inactive)	3.94 µM (inactive)	11.1 µM (inactive)	2.07 µM (inactive)	–
NNC(=O)/C(NC(=O)c1ccccc1)=C(\N)c1cccc([N+](=O)[O-])c1	> 100 µM (inactive)	> 100 µM (inactive)	> 100 µM (inactive)	> 100 µM (inactive)	–	> 100 µM (inactive)	> 100 µM (inactive)	> 100 µM (inactive)	> 100 µM (inactive)
CCOP(=O)(OCC)C(C(=O)OC)C(=O)C(=O)Nc1c(C)cc(Br)cc1C (stereo not drawn)	> 100 µM (inactive)	> 100 µM (inactive)	> 100 µM (inactive)	49.7 µM (inactive)	> 100 µM (inactive)	> 100 µM (inactive)	> 100 µM (inactive)	> 100 µM (inactive)	> 100 µM (inactive)
COc1ccc(C(=O)Cc2c(C(=O)c3ccccc3)c3ccccc3n2C(=O)c2ccccc2)cc1	74 µM (inactive)	50.7 µM (inactive)	5.38 µM (inactive)	–	> 100 µM (inactive)	–	> 100 µM (inactive)	67.6 µM (inactive)	–
COc1ccc2c(NCCCCCCNc3c4ccccc4nc4cc(OC)ccc34)c3ccccc3nc2c1	0.242 µM (active)	0.1 µM (active)	0.0313 µM (active)	2.15 µM (inactive)	0.065 µM (active)	0.12 µM (active)	–	0.04 µM (active)	0.126 µM (active)
COC(=O)C(=O)C(C(C)=O)C(=O)NCc1ccccc1 (stereo not drawn)	> 100 µM (inactive)	> 100 µM (inactive)	> 100 µM (inactive)	> 100 µM (inactive)	> 100 µM (inactive)	> 100 µM (inactive)	> 100 µM (inactive)	> 100 µM (inactive)	–
O=[N+]([O-])c1cccc(C2=NOC3C4CCC(C4)C23)c1 (stereo not drawn)	> 100 µM (inactive)	> 100 µM (inactive)	> 100 µM (inactive)	> 100 µM (inactive)	–	–	–	> 100 µM (inactive)	> 100 µM (inactive)
COc1ccc2nc(-c3ccc(OCc4ccccc4)cc3)ccc2c1	> 100 µM (inactive)	> 100 µM (inactive)	–	> 100 µM (inactive)	> 100 µM (inactive)	> 100 µM (inactive)	> 100 µM (inactive)	> 100 µM (inactive)	–
COc1ccc2oc3c4c2c1CCC4CCC3=O (stereo not drawn)	–	> 100 µM (inactive)	> 100 µM (inactive)	–	–	> 100 µM (inactive)	> 100 µM (inactive)	> 100 µM (inactive)	> 100 µM (inactive)
CCC1CN2CCc3c([nH]c4ccccc34)C2C[C@@H]1CC(=O)N(C)C (stereo partly drawn)	> 100 µM (inactive)	> 100 µM (inactive)	> 100 µM (inactive)	> 100 µM (inactive)	> 100 µM (inactive)	> 100 µM (inactive)	> 100 µM (inactive)	> 100 µM (inactive)	–
COCCOCOC(CCCCO)c1cc(C)c(O[Si](C)(C)C(C)(C)C)c(C)c1 (stereo not drawn)	–	2.47 µM (inactive)	–	16.9 µM (inactive)	4.72 µM (inactive)	–	–	10.4 µM (inactive)	–
O=C(Cc1ccccc1)N/N=C(\C1=Nc2ccc([N+](=O)[O-])cc2NC1O)C(O)c1ccc([N+](=O)[O-])cc1 (stereo not drawn)	> 100 µM (inactive)	–	–	> 100 µM (inactive)	> 100 µM (inactive)	> 100 µM (inactive)	> 100 µM (inactive)	42.6 µM (inactive)	> 100 µM (inactive)
Cc1c(C(=O)/C=C/c2ccco2)[n+]([O-])c2ccccc2[n+]1[O-]	> 100 µM (inactive)	73.5 µM (inactive)	> 100 µM (inactive)	> 100 µM (inactive)	> 100 µM (inactive)	> 100 µM (inactive)	> 100 µM (inactive)	> 100 µM (inactive)	18.6 µM (inactive)
Cc1cc(N(CCC#N)CCC#N)ccc1/C=C1N=C(/C=C/c2ccccc2)N(c2ccc(S(N)(=O)=O)cc2)C\1=O	> 100 µM (inactive)	> 100 µM (inactive)	–	–	> 100 µM (inactive)	> 100 µM (inactive)	–	> 100 µM (inactive)	> 100 µM (inactive)
O=C(O)CNS(=O)(=O)c1ccc(NCc2ccccc2)cc1	> 100 µM (inactive)	> 100 µM (inactive)	> 100 µM (inactive)	> 100 µM (inactive)	> 100 µM (inactive)	> 100 µM (inactive)	> 100 µM (inactive)	> 100 µM (inactive)	–
O=C1C(Cl)=C(N2CCN(C3=C(Cl)C(=O)c4ccccc4C3=O)CC2)C(=O)c2ccccc21	0.428 µM (active)	1.34 µM (inactive)	2.14 µM (inactive)	–	3.78 µM (inactive)	0.61 µM (active)	1.36 µM (inactive)	0.297 µM (active)	1.85 µM (inactive)
Cc1cc(Cl)ccc1NC(=O)C(=O)Cc1occc(=O)c1O	> 100 µM (inactive)	> 100 µM (inactive)	> 100 µM (inactive)	> 100 µM (inactive)	> 100 µM (inactive)	> 100 µM (inactive)	> 100 µM (inactive)	> 100 µM (inactive)	> 100 µM (inactive)
CC1C2=CC=C(O2)C(C)(C)C2=CC=C(O2)C(C)(C)C2=CC=C(O2)C(C)(C)C2=CC=C1O2	–	–	> 100 µM (inactive)	> 100 µM (inactive)	> 100 µM (inactive)	> 100 µM (inactive)	> 100 µM (inactive)	> 100 µM (inactive)	–
Cc1ccc(C(=O)N(C(C)C)C(C)C)cc1/N=N/N(C)C	77.4 µM (inactive)	–	> 100 µM (inactive)	–	> 100 µM (inactive)	35.9 µM (inactive)	–	31.2 µM (inactive)	–
Oc1cc(-c2ccccn2)nc2cccc(F)c12	> 100 µM (inactive)	> 100 µM (inactive)	–	> 100 µM (inactive)	> 100 µM (inactive)	> 100 µM (inactive)	–	74.1 µM (inactive)	> 100 µM (inactive)
CC1=C(C(=O)Nc2cccc(Cl)c2)C(c2ccccc2F)C(C(=O)Nc2cccc(Cl)c2)=C(C)N1	10.4 µM (inactive)	6.32 µM (inactive)	11.9 µM (inactive)	–	7.46 µM (inactive)	18.7 µM (inactive)	–	8.11 µM (inactive)	10.1 µM (inactive)
